{
  "source": "patent US20090208960A1",
  "about": "“METHODS FOR IDENTIFYNG CELLULAR MODULATORS OF DISAGGREGATION ACTIVITY OR AGGREGATION ACTIVITY IN AN ANIMAL” (priority 2006, published 2009)",
  "key": {"[1]": {"system": "proteasome activity of worm PDS", "experiment": "Proteasome activity of worm PDS with substrate Z-GGL-AMC", "assay_type": "biochemical, Caenorhabditis elegans", "conditions": "10 μM; wild-type worm (N2) PDS 0.5 μg/μl", "experimental": "The synthetic proteasome substrate Z-GGL-AMC was used according to the manufacturer's (Calbiochem) instructions to follow proteasome activity of wild-type worms (strain N2) PDS (0.5 μg/μl)."}},
  "data": [
    {"molecule": "CC[C@H](C)[C@H](NC(=O)[C@H]([C@@H](C)CC)N(C)C(C)=O)C(=O)N[C@H](C(=O)N[C@@H](CC(C)C)C(=O)[C@@]1(C)CO1)[C@@H](C)O", "note": "[Epoxomicin]", "values": [
      {"measurement": "proteasome activity of worm PDS", "setting": "[1]", "value": "effectively inhibits proteasome activity"}
    ]},
    {"molecule": "Monomeric Aβ1-40 peptide: Aβ1-40 peptide purchased from Synpep", "values": [
      {"measurement": "toxicity on PC12 cells", "setting": "PC12 cells", "value": "did not exhibit toxicity"}
    ]}
  ]
}
